Experimental data: ChEMBL document CHEMBL1201862, “PubChem BioAssay data set” (2004)
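48-hour exposure; five concentrations; linearly interpolated endpoints. GI50 marks 50% less growth.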 Calls of active or inactive are those of the source. Rule as the data show it: active = GI50 up to about 1.1 µM and inactive = higher.

What was measured:
Experiment in all cases: NCI-60 cell line screen, 48 h
[1] = tested on: K562
[2] = tested on: ACHN
[3] = tested on: HCT-116
[4] = tested on: UACC-257
[5] = tested on: U-251
[6] = tested on: SNB-19
[7] = tested on: HOP-92
[8] = tested on: CCRF-CEM
[9] = tested on: SNB-78
[10] = tested on: IGROV-1
[11] = tested on: UACC-62
[12] = tested on: SW-620
[13] = tested on: RXF 393
[14] = tested on: OVCAR-5
[15] = tested on: OVCAR-3
[16] = tested on: SK-OV-3
[17] = tested on: SK-MEL-2
[18] = tested on: MOLT-4
[19] = tested on: SK-MEL-5
[20] = tested on: EKVX
[21] = tested on: COLO 205
[22] = tested on: SF-268
[23] = tested on: NCI-H522
[24] = tested on: LXFL 529
[25] = tested on: UO-31
[26] = tested on: HCT-15
[27] = tested on: CAKI-1
[28] = tested on: KM12
[29] = tested on: HL-60
[30] = tested on: SNB-75
[31] = tested on: TK-10
[32] = tested on: OVCAR-4
[33] = tested on: DMS-273
[34] = tested on: A549
[35] = tested on: HOP-62
[36] = tested on: RPMI-8226
[37] = tested on: NCI-H460
[38] = tested on: OVCAR-8
[39] = tested on: SF-295
[40] = tested on: HCC 2998
[41] = tested on: SF-539
[42] = tested on: DMS-114
[43] = tested on: M19-MEL
[44] = tested on: NCI-H23
[45] = tested on: Malme-3M
[46] = tested on: 786-0
[47] = tested on: M14
[48] = tested on: DLD-1
[49] = tested on: HT-29
[50] = tested on: SK-MEL-28
[51] = tested on: A498
[52] = tested on: XF498
[53] = tested on: SN12C
[54] = tested on: LOX IMVI
[55] = tested on: NCI-H226
[56] = tested on: KM-20L2
[57] = tested on: SR
[58] = tested on: HOP-18

c1ccc(SC(CCCCOC2CCCCO2)Sc2ccccc2)cc1 (stereo unspecified)
GI50 [1]: 52 µM (inactive) | GI50 [2]: 59.7 µM (inactive) | GI50 [3]: 47.5 µM (inactive) | GI50 [4]: 63.8 µM (inactive) | GI50 [5]: > 100 µM (inactive) | GI50 [6]: > 100 µM (inactive) | GI50 [7]: 11.8 µM (inactive) | GI50 [8]: 29.2 µM (inactive) | GI50 [9]: 97.1 µM (inactive) | GI50 [10]: 82.8 µM (inactive) | GI50 [11]: > 100 µM (inactive) | GI50 [12]: 76.4 µM (inactive) | GI50 [13]: 38.8 µM (inactive) | GI50 [14]: > 100 µM (inactive) | GI50 [15]: 56.5 µM (inactive) | GI50 [16]: > 100 µM (inactive) | GI50 [17]: 22.6 µM (inactive) | GI50 [18]: 23.3 µM (inactive) | GI50 [19]: 30.5 µM (inactive) | GI50 [20]: > 100 µM (inactive) | GI50 [21]: 94.6 µM (inactive) | GI50 [22]: 44.5 µM (inactive) | GI50 [23]: 18.4 µM (inactive) | GI50 [24]: 41.1 µM (inactive) | GI50 [25]: 13.4 µM (inactive) | GI50 [26]: 91.2 µM | GI50 [27]: 92.7 µM (inactive) | GI50 [28]: > 100 µM (inactive) | GI50 [29]: 20.4 µM (inactive) | GI50 [30]: 49.8 µM (inactive) | GI50 [31]: > 100 µM (inactive) | GI50 [32]: 55.6 µM (inactive) | GI50 [33]: > 100 µM (inactive) | GI50 [34]: 93.3 µM (inactive) | GI50 [35]: > 100 µM (inactive) | GI50 [36]: 32.4 µM (inactive) | GI50 [37]: 99.1 µM (inactive) | GI50 [38]: 87.5 µM (inactive) | GI50 [39]: > 100 µM (inactive) | GI50 [40]: > 100 µM (inactive) | GI50 [41]: > 100 µM (inactive) | GI50 [42]: 34.1 µM (inactive) | GI50 [43]: 46.6 µM (inactive) | GI50 [44]: 40.8 µM (inactive) | GI50 [45]: > 100 µM (inactive) | GI50 [46]: > 100 µM (inactive) | GI50 [47]: > 100 µM (inactive) | GI50 [48]: > 100 µM (inactive) | GI50 [49]: 52 µM (inactive) | GI50 [50]: 64.3 µM (inactive) | GI50 [51]: 88.7 µM (inactive) | GI50 [52]: > 100 µM (inactive) | GI50 [53]: > 100 µM (inactive) | GI50 [54]: 65.5 µM (inactive)

CCC/C=C1\CCC(CN(C)C)C1=O (stereo unspecified)
GI50 [1]: 2.15 µM (inactive) | GI50 [2]: 5.62 µM (inactive) | GI50 [3]: 9.91 µM (inactive) | GI50 [55]: 19 µM (inactive) | GI50 [4]: 15 µM (inactive) | GI50 [5]: 5.81 µM (inactive) | GI50 [56]: 10.3 µM (inactive) | GI50 [6]: 36.7 µM (inactive) | GI50 [7]: 3.04 µM (inactive) | GI50 [8]: 1.09 µM (active) | GI50 [10]: 18.5 µM (inactive) | GI50 [11]: 14.6 µM (inactive) | GI50 [12]: 4.6 µM (inactive) | GI50 [14]: 20 µM (inactive) | GI50 [15]: 5.47 µM (inactive) | GI50 [16]: 36.3 µM (inactive) | GI50 [17]: 15.9 µM (inactive) | GI50 [18]: 2.88 µM (inactive) | GI50 [19]: 16.7 µM (inactive) | GI50 [20]: 6.12 µM (inactive) | GI50 [21]: 3.1 µM (inactive) | GI50 [22]: 14.5 µM (inactive) | GI50 [57]: 2.49 µM (inactive) | GI50 [23]: 1.93 µM (inactive) | GI50 [24]: 1.82 µM (inactive) | GI50 [25]: 12.4 µM (inactive) | GI50 [26]: 2.51 µM | GI50 [27]: 2.13 µM (inactive) | GI50 [28]: 4.67 µM (inactive) | GI50 [29]: 9.25 µM (inactive) | GI50 [30]: 18.1 µM (inactive) | GI50 [31]: 5.41 µM (inactive) | GI50 [32]: 18.8 µM (inactive) | GI50 [33]: 11.9 µM (inactive) | GI50 [34]: 29.6 µM (inactive) | GI50 [35]: 15.7 µM (inactive) | GI50 [36]: 0.333 µM (active) | GI50 [37]: 28.1 µM (inactive) | GI50 [38]: 10.2 µM (inactive) | GI50 [39]: 24.1 µM (inactive) | GI50 [40]: 15.8 µM (inactive) | GI50 [41]: 10.8 µM (inactive) | GI50 [42]: 15.6 µM (inactive) | GI50 [43]: 12.9 µM (inactive) | GI50 [44]: 17.1 µM (inactive) | GI50 [45]: 1.77 µM (inactive) | GI50 [46]: 2.81 µM (inactive) | GI50 [47]: 6.52 µM (inactive) | GI50 [48]: 2.38 µM (inactive) | GI50 [49]: 8.11 µM (inactive) | GI50 [58]: 23.4 µM (inactive) | GI50 [50]: 6.52 µM (inactive) | GI50 [51]: 0.455 µM (active) | GI50 [52]: 5.57 µM (inactive) | GI50 [53]: 16.9 µM (inactive) | GI50 [54]: 7.35 µM (inactive)

COC(=O)CC1N/C(=N\C#N)N(CCc2c[nH]c3ccccc23)C1=O (stereo unspecified)
GI50 [1]: > 100 µM (inactive) | GI50 [2]: > 100 µM (inactive) | GI50 [3]: > 100 µM (inactive) | GI50 [55]: > 100 µM (inactive) | GI50 [4]: > 100 µM (inactive) | GI50 [5]: > 100 µM (inactive) | GI50 [56]: > 100 µM (inactive) | GI50 [6]: > 100 µM (inactive) | GI50 [8]: > 100 µM (inactive) | GI50 [9]: > 100 µM (inactive) | GI50 [10]: > 100 µM (inactive) | GI50 [11]: > 100 µM (inactive) | GI50 [12]: > 100 µM (inactive) | GI50 [13]: > 100 µM (inactive) | GI50 [14]: > 100 µM (inactive) | GI50 [15]: > 100 µM (inactive) | GI50 [16]: > 100 µM (inactive) | GI50 [18]: > 100 µM (inactive) | GI50 [19]: > 100 µM (inactive) | GI50 [20]: 83 µM (inactive) | GI50 [21]: > 100 µM (inactive) | GI50 [22]: > 100 µM (inactive) | GI50 [57]: 94.2 µM (inactive) | GI50 [24]: > 100 µM (inactive) | GI50 [25]: 75.9 µM (inactive) | GI50 [26]: > 100 µM | GI50 [28]: > 100 µM (inactive) | GI50 [29]: > 100 µM (inactive) | GI50 [30]: > 100 µM (inactive) | GI50 [31]: > 100 µM (inactive) | GI50 [32]: > 100 µM (inactive) | GI50 [33]: > 100 µM (inactive) | GI50 [34]: > 100 µM (inactive) | GI50 [35]: > 100 µM (inactive) | GI50 [36]: > 100 µM (inactive) | GI50 [37]: > 100 µM (inactive) | GI50 [38]: > 100 µM (inactive) | GI50 [39]: > 100 µM (inactive) | GI50 [40]: 34.5 µM (inactive) | GI50 [41]: > 100 µM (inactive) | GI50 [42]: > 100 µM (inactive) | GI50 [43]: > 100 µM (inactive) | GI50 [44]: > 100 µM (inactive) | GI50 [46]: > 100 µM (inactive) | GI50 [47]: > 100 µM (inactive) | GI50 [48]: > 100 µM (inactive) | GI50 [49]: > 100 µM (inactive) | GI50 [50]: > 100 µM (inactive) | GI50 [52]: > 100 µM (inactive) | GI50 [53]: > 100 µM (inactive) | GI50 [54]: > 100 µM (inactive)
